Source: PMC9298630 (Journal of Food and Drug Analysis, 2018)
Where two headings read alike, the source gives them in different places.

How the values were obtained:
[1] = cited from earlier work
[2] = Stability of analytes in stored plasma samples; conditions: −80 °C, rat plasma
[3] = for AUC0–t / AUC0–∞ / CL/F (apparent clearance) / Cmax / Tmax / Vd/F / t1/2: rats, mean ± SEM
[4] = oral suspension (40 mg/ml), 7 days, participants; cited from earlier work
[5] = test system: rat liver microsomal NFO activity (CYP3A); assay: Inhibition of rat liver microsomal nifedipine oxidation; type: in vitro ADME; conditions: 100 μM, 10-min NADPH-fortified pre-incubation
[6] = S. Chinese remedy-treated rats; cited from earlier work
[7] = oral nifedipine 3 mg/kg 1 h after SY 0.95 g/kg
[8] = oral nifedipine 3 mg/kg 1 h after SY […]
[9] = oral nifedipine 3 mg/kg together with ketoconazole 30 mg/kg
[10] = oral nifedipine 3 mg/kg, control

In the case of `COC(=O)c1c(C)nc(C)c(C(=O)OC)c1-c1ccccc1[N+](=O)[O-]` [Dehydronifedipine, dehydronifedipine], the “AUC ratio of the dehydronifedipine to nifedipine” value ([1]; rats treated with nifedipine suspension (in water)) is listed as 38%, the “half-life (terminal)” value ([1]; rats, nifedipine suspended in water (10 mg/ml), oral dose 10 mg/kg) is listed as 15.7 h and the “AUC0–t ratio of dehydronifedipine to nifedipine” value ([1]; rats, ref 6 (Han et al.)) is listed as 2.7 ± 0.3%. For the same compound, the “14-day stability in plasma samples” value [2] was 99.6–100.8%, the “AUC0–t ratio of dehydronifedipine to nifedipine” value ([3]; control rats, oral nifedipine 3 mg/kg in 50% PEG 400) was 2.7 ± 0.5% and the “AUC0–t” value [3, 7] was 0.11 ± 0.01 µg·h/mL. The “AUC0–∞” value [3, 7] was 0.13 ± 0.02 µg·h/mL, the “CL/F (apparent clearance)” value [3, 7] was 405 ± 53.3 mL/min/kg and the Cmax [3, 7] was 50 ± 10 ng/mL. The Tmax [3, 7] was 0.29 ± 0.05 h, the Vd/F [3, 7] was 61.0 ± 13.3 L/kg and the t1/2 [3, 7] was 1.9 ± 0.5 h. The “AUC0–t” value [3, 8] was 0.13 ± 0.02 µg·h/mL, the “AUC0–∞” value [3, 8] was 0.24 ± 0.04 µg·h/mL and the “CL/F (apparent clearance)” value [3, 8] was 253 ± 55 mL/min/kg. The Cmax [3, 8] was 40 ± 0 ng/mL, the Tmax [3, 8] was 0.58 ± 0.08 h and the Vd/F [3, 8] was 89.7 ± 14.4 L/kg. For the same compound, the t1/2 [3, 8] was 4.8 ± 0.8 h, the “AUC0–t” value [3, 9] was 0.46 ± 0.11 ^* h·μg/ml and the “AUC0–∞” value [3, 9] was 1.77 ± 0.53 ^* h·μg/ml. The “CL/F (apparent clearance)” value [3, 9] was 43.3 ± 16.7 mL/min/kg, the Cmax [3, 9] was 100 ± 20 ng/mL and the Tmax [3, 9] was 1.80 ± 0.55 h. For the same compound, the Vd/F [3, 9] was 34.3 ± 7.4 L/kg, the t1/2 [3, 9] was 12.3 ± 3.9 h and the “AUC0–t” value [3, 10] was 0.12 ± 0.02 µg·h/mL. For the same compound, the “AUC0–∞” value [3, 10] was 0.14 ± 0.02 µg·h/mL, the “CL/F (apparent clearance)” value [3, 10] was 395 ± 48.3 mL/min/kg and the Cmax [3, 10] was 40 ± 10 ng/mL. For the same compound, the Tmax [3, 10] was 0.70 ± 0.12 h, the Vd/F [3, 10] was 68.9 ± 9.0 L/kg and the t1/2 [3, 10] was 2.0 ± 0.1 h.
For `CC[C@@H]([C@H](C)O)n1ncn(-c2ccc(N3CCN(c4ccc(OC[C@@H]5CO[C@@](Cn6cncn6)(c6ccc(F)cc6F)C5)cc4)CC3)cc2)c1=O` [posaconazole], the “mean Cmax at 200 mg 4 times daily relative to 400 mg twice daily” value [4] is given as 2 fold.
In the case of `COc1cc2c(c(OC)c1OC)-c1c(cc(OC)c(OC)c1OC)C[C@H](C)[C@H](C)C2` [schisandrin A], the “decrease of NFO activity” value [5] is reported as 48%.
For `COc1cc2c(c(OC)c1OC)-c1c(cc3c(c1OC)OCO3)CC(C)C(C)C2` (stereo not drawn) [schisandrin B], the Tmax [6] is listed as “about 4 h”.
